Laboratory results reported in ChEMBL document CHEMBL1126097 (J Med Chem, 1992).

Key:
[1] = molecular target: T1, 5-hydroxytryptamine receptor 2C (Rattus norvegicus, UniProt P08909); assay: Binding affinity against 5-hydroxytryptamine 1C receptor
T1 sequence (P08909 whole entry): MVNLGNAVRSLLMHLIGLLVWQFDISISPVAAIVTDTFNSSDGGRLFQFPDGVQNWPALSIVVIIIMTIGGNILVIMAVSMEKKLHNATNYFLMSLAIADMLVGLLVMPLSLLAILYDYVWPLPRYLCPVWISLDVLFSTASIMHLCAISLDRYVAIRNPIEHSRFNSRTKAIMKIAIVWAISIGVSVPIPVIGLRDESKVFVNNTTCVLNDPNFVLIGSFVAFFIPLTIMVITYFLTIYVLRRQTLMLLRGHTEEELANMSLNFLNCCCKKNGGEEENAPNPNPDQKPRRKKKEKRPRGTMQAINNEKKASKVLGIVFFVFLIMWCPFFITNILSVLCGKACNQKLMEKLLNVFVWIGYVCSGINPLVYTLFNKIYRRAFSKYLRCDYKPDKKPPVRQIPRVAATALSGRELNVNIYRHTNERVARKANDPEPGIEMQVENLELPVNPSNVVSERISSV

[2] = molecular target: T2, Serotonin 2 (5-HT2) receptor (Rattus norvegicus, UniProt P30994+P08909+P14842); assay: Binding affinity against 5-hydroxytryptamine 2 receptor using [3H]ket as radioligand.; assay type: protein assay
[3] = molecular target: 5-hydroxytryptamine receptor 1B (Homo sapiens, UniProt P28222); assay: Binding affinity against 5-hydroxytryptamine 1B receptor
Chain of 5-hydroxytryptamine receptor 1B (P28222 whole entry): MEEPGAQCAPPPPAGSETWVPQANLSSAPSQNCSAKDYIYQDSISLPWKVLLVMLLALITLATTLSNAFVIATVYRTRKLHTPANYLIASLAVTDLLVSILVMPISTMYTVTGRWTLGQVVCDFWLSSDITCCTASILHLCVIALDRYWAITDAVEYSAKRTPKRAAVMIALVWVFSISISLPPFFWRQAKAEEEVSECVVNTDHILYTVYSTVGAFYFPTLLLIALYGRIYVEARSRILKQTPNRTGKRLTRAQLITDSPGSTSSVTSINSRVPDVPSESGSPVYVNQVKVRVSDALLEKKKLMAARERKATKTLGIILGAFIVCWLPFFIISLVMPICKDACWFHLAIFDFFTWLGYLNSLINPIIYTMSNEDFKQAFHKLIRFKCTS

[4] = molecular target: T3, 5-hydroxytryptamine receptor 1D (Cavia porcellus, UniProt Q60484); assay: Binding affinity against 5-hydroxytryptamine 1D receptor
T3 sequence (Q60484 whole entry): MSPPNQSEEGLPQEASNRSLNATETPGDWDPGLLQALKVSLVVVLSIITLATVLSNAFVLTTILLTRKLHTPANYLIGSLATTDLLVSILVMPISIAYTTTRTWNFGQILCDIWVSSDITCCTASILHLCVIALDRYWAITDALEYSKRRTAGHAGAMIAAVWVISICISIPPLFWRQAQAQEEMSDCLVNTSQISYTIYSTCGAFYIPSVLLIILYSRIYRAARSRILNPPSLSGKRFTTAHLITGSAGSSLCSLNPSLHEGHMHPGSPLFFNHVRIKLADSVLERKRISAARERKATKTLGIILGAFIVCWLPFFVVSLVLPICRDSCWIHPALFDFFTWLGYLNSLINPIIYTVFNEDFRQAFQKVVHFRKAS

[5] = molecular target: T2, Serotonin 2 (5-HT2) receptor; assay: Binding affinity against 5-hydroxytryptamine 2 receptor using [125I]DOI as radioligand.; assay type: protein assay
[6] = molecular target: T3, 5-hydroxytryptamine receptor 1D; assay: Effect on forskolin stimulated adenylate cyclase activity at 5-HT1D receptor of guinea pig substantia nigra.; assay type: functional

Structure (SMILES) | IC50 [1] [nM] | IC50 [2] [nM] | IC50 [3] [nM] | IC50 [4] [nM] | IC50 [5] [nM] | EC50 [6] [nM]
COc1ccc2[nH]cc(C[C@@H]3CCCN3C)c2c1 | 1200 | > 8400 | 5800 | 420 | 680 | –
COc1ccc2[nH]cc(C[C@H]3CCCN3C)c2c1 | 33 | 730 | 830 | 24 | 17 | 43
COc1ccc2[nH]cc(CCN(C)C)c2c1 [MEBUFOTENIN] | – | – | – | 49 | – | –
NCCc1c[nH]c2ccc(O)cc12 [SEROTONIN] | – | – | – | 3 | – | 5.2
